Assay results as given in publication PMC12298876, “Angiotensin-Converting Enzyme Inhibitory Activity of Selected Phenolic Acids, Flavonoids, Their O-Glucosides, and Low-Molecular-Weight Phenolic Metabolites in Relation to Their Oxidation Potentials” (Metabolites, 2025).
Read-outs that look alike come from different tables or passages of the source. Marks after values point to notes of the source that are not given here.

How the values were obtained:
[1] = First anodic oxidation potential by differential pulse voltammetry (DPV); type: physicochemical; conditions: for Anodic Peak Potential Epa: DPV, first anodic peak, 0.25 mM standard in 0.1 M Britton-Robinson buffer pH 6.0 in 80% methanol, glassy carbon vs Ag/AgCl, 100 mV/s
Description: A potentiostat/galvanostat G 750 (Gamry Instruments, Warminster, USA) was used for voltametric experiments. A conventional three-electrode system: a 3 mm diameter glassy carbon working electrode (BAS MF-2012), an Ag/AgCl electrode as a reference electrode, and a platinum as counter electrode, was used in the study. Differential pulse voltametric experiments were performed with phenolic acids and flavonoids prepared in a 1:1 (v/v) mixture of 500 µM standard solution and […] Britton-Robinson (B-R) buffer (pH 6.0 in 80% methanol), which also served as a supporting electrolyte. The voltametric experiments were performed at room temperature using an electrochemical cell (volume 200 µL), to which the analyzed standard solution, mixed previously with the buffer solution, was introduced. The differential pulse voltammograms were acquired in the range of −100 to 1300 mV at a scanning rate of 100 mV/s. Before use, the surface of the glassy carbon electrode was carefully polished with 0.05 µm alumina paste, ultrasonically rinsed in deionized water, and then washed with methanol. This procedure was repeated after each cycle. For test purposes, the first anodic oxidation potential was recorded (mV).

[2] = biological target: T1, Angiotensin-converting enzymes (ACE) from porcine kidneys (EC 3.4.15.1) (Sus scrofa, UniProt F1RRW5); assay: biochemical; conditions: for lower IC50 in relation to the respective aglycone: glycoside vs aglycon
T1 construct: Angiotensin-converting enzymes (ACE) from porcine kidneys (EC 3.4.15.1) were purchased from Sigma-Aldrich; purchased Sigma-Aldrich (St. Louis, MO, USA); host or cells: porcine kidneys (tissue-derived enzyme)
T1 sequence (F1RRW5 34-1309): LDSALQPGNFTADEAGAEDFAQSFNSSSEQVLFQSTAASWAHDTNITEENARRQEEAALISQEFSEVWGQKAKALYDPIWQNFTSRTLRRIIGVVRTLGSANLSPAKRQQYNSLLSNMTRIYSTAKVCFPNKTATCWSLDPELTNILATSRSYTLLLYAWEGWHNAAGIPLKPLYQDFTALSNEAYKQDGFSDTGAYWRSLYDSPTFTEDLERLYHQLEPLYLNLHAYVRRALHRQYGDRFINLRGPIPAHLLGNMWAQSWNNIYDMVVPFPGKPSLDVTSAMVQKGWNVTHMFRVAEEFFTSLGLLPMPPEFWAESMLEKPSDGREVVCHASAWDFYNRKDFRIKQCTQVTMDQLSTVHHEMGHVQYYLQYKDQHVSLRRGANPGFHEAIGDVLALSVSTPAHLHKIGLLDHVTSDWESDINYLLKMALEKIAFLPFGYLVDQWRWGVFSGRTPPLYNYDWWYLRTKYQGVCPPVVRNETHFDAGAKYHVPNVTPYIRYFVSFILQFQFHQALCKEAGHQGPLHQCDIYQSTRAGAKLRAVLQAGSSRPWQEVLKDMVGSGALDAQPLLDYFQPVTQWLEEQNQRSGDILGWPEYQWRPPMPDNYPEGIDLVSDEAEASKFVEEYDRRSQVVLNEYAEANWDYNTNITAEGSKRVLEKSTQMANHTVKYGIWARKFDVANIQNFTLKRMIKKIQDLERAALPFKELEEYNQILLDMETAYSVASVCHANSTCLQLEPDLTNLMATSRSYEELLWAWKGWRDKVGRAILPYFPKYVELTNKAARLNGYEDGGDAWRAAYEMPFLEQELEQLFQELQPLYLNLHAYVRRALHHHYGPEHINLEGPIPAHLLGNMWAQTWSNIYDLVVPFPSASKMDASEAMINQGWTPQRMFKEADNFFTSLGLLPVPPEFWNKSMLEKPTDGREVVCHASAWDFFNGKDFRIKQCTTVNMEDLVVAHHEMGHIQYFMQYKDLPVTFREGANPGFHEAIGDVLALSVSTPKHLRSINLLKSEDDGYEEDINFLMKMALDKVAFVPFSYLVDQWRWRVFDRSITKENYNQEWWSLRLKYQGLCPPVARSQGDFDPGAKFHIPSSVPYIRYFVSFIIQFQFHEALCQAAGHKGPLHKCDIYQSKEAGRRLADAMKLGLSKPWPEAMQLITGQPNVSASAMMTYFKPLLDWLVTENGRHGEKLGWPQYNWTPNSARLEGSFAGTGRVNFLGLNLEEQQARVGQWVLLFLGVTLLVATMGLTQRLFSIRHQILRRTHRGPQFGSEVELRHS
Description: Angiotensin-converting enzymes (ACE) from porcine kidneys (EC 3.4.15.1) were purchased from Sigma-Aldrich (St. Louis, MO, USA). A three-tris-base buffer was as follows: buffer A: 300 mM Tris-base buffer (pH 8.3) with 2 mM ZnCl2; buffer B: 150 mM Tris-base buffer (pH 8,3); and buffer C: 150 mM Tris-base buffer (pH 8.3) with […] NaCl. The substrate o-aminobenzoylglycyl-p-nitorphenylalanylproline (Abz-Gly-Phe(NO2)-Pro) was obtained from BACHEM (Bubendorf, Switzerland). Standards of phenolic acids, flavonoids, glucosides, and low-molecular-weight phenolic metabolites were obtained from Sigma-Aldrich (St. Louis, MO, USA) and Extrasynthese (Genay, France). Water was purified using the Mili-Q system (Milipore, Bedford, MA, USA).
Stock solutions at 1 mM of selected phenolic acids, flavonoids, their O-glucosides, and low-molecular-weight phenolic metabolites were prepared in 80% methanol. The concentration was confirmed by a UV measurement according to Franke et al.. A wide range of concentrations of each compound was prepared by serial dilutions in deionized water to determine the IC50 value. […] The ACE inhibitory activity was obtained from three repetitions (n = 3) for each concentration.
Angiotensin-converting enzyme (ACE) activity inhibitory assay was performed according to the method of Sentandreu and Toldra. The procedure was based on the hydrolysis of the internally quenched substrate o-aminobenzoylglycyl-p-nitorphenylalanylproline (Abz-Gly-Phe(NO2)-Pro) by the reaction of ACE. The fluorescence generated by the liberation of the product (the o-aminobenzoylglycine group) was read in a microplate multiscan fluorometer. The production of fluorescence was inhibited by the presence of functional compounds with an ACE inhibitory effect. The fluorescence was measured immediately after mixing (0 min) and then after 30 min of reaction at an excitation of 365 nm and an emission of 405 nm. To calculate the % of inhibition of ACE, the following equation was used:Relative ACE activity% = 100 − (ΔRFUsample × 100/ΔRFUnegative control), where ΔRFU = RFU at time 30 – RFU at time 0.

[3] = test system: formation of advanced glycation end products; design: method as in PMID 27709826; conditions: cited from earlier work
ACE [4] = test system: ACE; design: method as in PMID 23185345; conditions: same fluorometric method as this study; read-out: IC50 (ACE inhibition); cited from earlier work
ACE [5] = conditions: cited from earlier work; for IC50: read-out: IC50 (ACE inhibitory activity)
[6] = porcine kidney ACE, substrate Abz-Gly-Phe(NO2)-Pro, fluorescence after 30 min, mean ± SD, read-out: IC50 Value (ACE inhibitory activity)
[7] = IC50 Value (ACE inhibitory activity), porcine kidney ACE, substrate Abz-Gly-Phe(NO2)-Pro, fluorescence after 30 min, mean ± SD
[8] = values of this study restated in mM in the discussion, read-out: IC50 (ACE inhibition)

| Compound | Anodic Peak Potential Epa [1] | IC50 [2, 6] [mM] | further results |
| --- | --- | --- | --- |
| O=c1cc(-c2ccc(O)cc2)oc2cc(O)cc(O)c12 [Apigenin] | 810 ± 6 ^c mV | – | IC50 [2, 7]: 0.337 ± 0.00372 mM; IC50 (ACE [4]): 196 µM |
| O=C1CC(c2ccc(O)cc2)Oc2cc(OC3OC(CO)C(O)C(O)C3O)cc(O)c21 (stereo not drawn) [Naringenin-7-O-glucoside] | 830 ± 8 ^ab mV | 0.3572 ± 0.00199 | lower IC50 in relation to the respective aglycone ([2]; ACE inhibition): 9% |
| OCC1OC(Oc2cc3c(O)cc(O)cc3[o+]c2-c2ccc(O)cc2)C(O)C(O)C1O (stereo not drawn) [Pelargonidin-3-O-glucoside] | 473 ± 5 ^d mV | 0.3769 ± 0.00261 | higher value of IC50 as compared to the IC50 of the respective aglycon ([2]; ACE inhibition, glucoside vs aglycon): 29% |
| O=C(O)c1ccc(O)c(O)c1 [Protocatechuic acid] | 417 ± 12 ^e mV | 6.235 ± 0.042 | Anodic Peak Potential Epa ([1]; listed as protocatechuic acid): 417 mV; IC50 [2, 8]: 6.24 mM |
| C[C@@H]1O[C@@H](OC[C@H]2O[C@@H](Oc3c(-c4ccc(O)c(O)c4)oc4cc(O)cc(O)c4c3=O)[C@H](O)[C@@H](O)[C@@H]2O)[C@H](O)[C@H](O)[C@H]1O [Rutin, quercetin-O-3-rutinoside] | 389 ± 4 ^g mV | – | lower IC50 in relation to the respective aglycone ([2]; ACE inhibition): 50%; IC50 [2, 7]: 0.0593 mM; IC50 (ACE [4]): 64 µM |
| COc1cc(/C=C/C(=O)O)cc(OC)c1O [Sinapic acid] | 618 ± 7 ^c mV | – | IC50 [2, 7]: 0.493 ± 0.00614 mM |
| O=C(CCc1ccc(O)cc1)c1c(O)cc(O)cc1O [phloretin] | – | – | IC50 higher than the IC50 of phloretin 2′-O-glucose (ACE [5]): 25%; IC50 (ACE [5]): 0.2868 ± 0.00254 mM |
| C[C@@H]1O[C@@H](O[C@H]2[C@H](Oc3cc(O)c4c(=O)cc(-c5ccc(O)cc5)oc4c3)O[C@H](CO)[C@@H](O)[C@@H]2O)[C@H](O)[C@H](O)[C@H]1O [rhoifolin, reference compound] | – | – | IC50 (ACE [4]): 183 µM |

The next lines start with results.

| Anodic Peak Potential Epa [1] | IC50 [2, 6] [mM] | Compound | further results |
| --- | --- | --- | --- |
| 432 ± 6 ^g mV | 0.6728 ± 0.00493 | O=C(O)Cc1ccc(O)c(O)c1 [3,4-DHPAA, 3,4-dihydroxyphenylacetic acid] | inhibitory activity against the formation of advanced glycation end products [3]: strong inhibitory activity |
| 397 ± 8 ^e mV | 9.11 | O=C(O)/C=C/c1ccc(O)c(O)c1 [Caffeic acid] | IC50 (ACE [5]): 8.97 ± 0.08 mM; Anodic Peak Potential Epa ([1]; listed as caffeic acid): 397 mV; IC50 [2, 8]: 9.11 ± 0.06 mM |
| 394 ± 4 ^g mV | 0.132 ± 0.00247 | O=c1c(O)c(-c2ccc(O)cc2)oc2cc(O)cc(O)c12 [Kaempferol] | IC50 (ACE [4]): 178 µM |
| 407 ± 5 ^f mV | 0.0771 ± 0.00255 | O=c1cc(-c2ccc(O)c(O)c2)oc2cc(O)cc(O)c12 [Luteolin] | IC50 lower than the value for naringenin ([2]; ACE inhibition): fivefold; IC50 (ACE [4]): 23 µM |
| 574 ± 5 ^f mV | 0.726 ± 0.00571 | COC(=O)CCc1ccc(O)cc1 [MET, 3-(4-hydroxyphenyl)propionic methyl ester] | antioxidant power class based on the first oxidation potential ([1]; low-molecular-weight phenolic metabolites, classes according to Blasco et al. [47]): moderate antioxidant power (moderate antioxidant power (0.3 V < Epa < 0.8 V)) |
| 819 ± 7 ^bc mV | 0.391 | O=C1C[C@@H](c2ccc(O)cc2)Oc2cc(O)cc(O)c21 [Naringenin] | – |
| 228 ± 5 ^j mV | 0.293 ± 0.0034 | Oc1ccc(-c2[o+]c3cc(O)cc(O)c3cc2O)cc1 [Pelargonidin] | – |
| 330 ± 4 ^g mV | 0.121 ± 0.00156 | O=c1c(O)c(-c2ccc(O)c(O)c2)oc2cc(O)cc(O)c12 [Quercetin] | – |
| 731 ± 9 ^a mV | 2.76 ± 0.0363 | COc1cc(C(=O)O)cc(OC)c1O [Syringic acid] | – |
| 748 ± 10 ^a mV | 4.11 ± 0.0483 | COc1cc(C(=O)O)ccc1O [Vanillic acid] | Anodic Peak Potential Epa ([1]; listed as vanillic acid): 748 mV |
| 672 ± 10 ^b mV | 0.315 ± 0.0098 | O=C(O)C=Cc1ccc(O)cc1 [p-Coumaric acid] | Anodic Peak Potential Epa ([1]; listed as p-coumaric acid): 672 mV |
